Measurements reported in paper PMC9610410, “Pelargonium sidoides Root Extract: Simultaneous HPLC Separation, Determination, and Validation of Selected Biomolecules and Evaluation of SARS-CoV-2 Inhibitory Activity” (Pharmaceuticals, 2022).
Read-outs that look alike come from different tables or passages of the source.

Experiments:
[1] = MTT cytotoxicity assay against normal cell line (Vero E6); settings: African green monkey, Vero E6 cells
SARS-CoV-2 [2] = experiment: microbe, parasite or virus in culture; type: cell-based; settings: for IC50: Severe acute respiratory syndrome coronavirus 2, Vero C1008, SARS-CoV-2-induced cytopathic effect in Vero E6 cells; for Selectivity Index (SI): antiviral activity relative to cellular toxicity (CC50/IC50), Vero E6
SARS-CoV-2 [3] = test system: SARS-CoV-2; set-up: method as in PMID 34214752; settings: cited from earlier work; for IC50: SARS-CoV-2 in Vero E6 cells, positive controls reported by the same laboratory
in vitro = settings: African green monkey
Vero E6 cells = settings: positive controls reported by the same laboratory; cited from earlier work

SMILES	CC50 [1] [µM]	IC50 (SARS-CoV-2 [2]) [µM]	Selectivity Index (SI) (SARS-CoV-2 [2])	IC50 (SARS-CoV-2 [3]) [µM]	CC50 (in vitro) [µM]	Selectivity Index (SI) (SARS-CoV-2 [3]; positive controls)	CC50 (Vero E6 cells) [µM]
COc1c(O)cc2oc(=O)ccc2c1OC [Umckalin, 7-hydroxy-5,6-dimethoxycoumarin]	164.1 ± 0.54	311.6 ± 0.043	0.5	–	–	–	–
CCN(CC)CCCC(C)Nc1ccnc2cc(Cl)ccc12 (stereo not shown) [Chloroquine]	–	–	–	22.7	–	–	–
COc1cc2ccc(=O)oc2cc1O [Scopoletin, 7-hydroxy-6-methoxycoumarin]	–	17.8 ± 0.91	14.22	–	253.1 ± 0.45	–	–
CCN(CCO)CCCC(C)Nc1ccnc2cc(Cl)ccc12 (stereo not shown) [Hydroxychloroquine]	–	–	–	32.8	–	10.85	356
O=C(O)c1cc(O)c(O)c(O)c1 [Gallic acid, 3,4,5-trihydroxybenzoic acid]	–	96.41 ± 0.03	4.6	–	439.7 ± 0.065	–	–
Oc1cc(O)c2c(c1)O[C@H](c1ccc(O)c(O)c1)[C@@H](O)C2 [Catechin, (+)−catechin]	52.76 ± 0.079	58.55 ± 0.088	0.9	–	–	–	–
